Assay results as given in US11534438B2, “Composition containing piperacillin, pharmaceutical formulation thereof and use thereof” (priority 2017, dated 2022).
Where two headings read alike, the source gives them in different places.

Tests used:
[1] = tested on: CBP-R (a carbapenem-resistant strain of A. baumannii); experiment: Animal protection experiment, mice infected with CBP-R; type: in vivo, Acinetobacter baumannii; conditions: for ED50: Acinetobacter baumannii, read-out: ED50 for animals infected with A. baumannii, CBP-R a carbapenem-resistant A. baumannii; for inhibitory / anti-bacterial effect on drug-resistant strains of A. baumannii (in words): infected ICR mice, drug-resistant strains (CBP-R and CPZ/S-R), summary of Table 1
Description: (§1) Tested animals were ICR mice. Tested bacterial strains were ATCC19606 (a standard strain of A. baumannii), CBP-R (a carbapenem-resistant strain of A. baumannii), and CPZ/S-R (a cefoperazone-sulbactam-resistant strain of A. baumannii). Among them, the standard strain was obtained from ATCC, and the other strains were clinically isolated.
(§2) Determining the dose ranges of the tested samples: The tested strains were diluted with 5% high active dry yeast to obtain bacterial dilutions of different concentrations (10^−1, 10^−2, 10^−3, and 10^−4), and then intraperitoneally injected into the tested animals in 0.5 ml/mice. The number of dead mice after infection was recorded. The minimum bacterial dose, which kills 100% members of the mice, was recorded as 1 MLD. The mice were infected with 1 MLD of bacteria which was formulated with 5% high active dry yeast Immediately and 6 hours after the infection, a preliminary experiment was carried out with high, median and low dosages of the tested samples, and the survival numbers of the mice after infection were recorded. Based on the results of the preliminary experiment, the administration dosages of the tested samples were designed for the animal protection experiment.
(§3) Animal protection experiment: After fasting with water only for 18 h, the mice (half male and female, 25-30 g body weight) were randomly divided into: (1) ATCC19606 group, (2) CBP-R group, and (3) CPZ/S-R group. Each group was treated with five concentrations of the samples, and included 10 animals. In addition, 10 animals were incorporated as a control group. Each mouse was intraperitoneally injected with 0.5 ml of 1 MLD bacterial solution to establish an infection model. At 0 h and 6 h after infection, the mice were subcutaneously injected with different concentrations of the tested samples, 0.2 ml/mice, and the mice of the control group were injected with the same volume of sterilized water. The animals were observed continuously for 7 days, and the death of animals in each group was recorded. The 50% effective dose (ED50) of each tested sample was calculated by the Bliss method. Smaller ED50 means that the tested sample has better anti-bacterial effect in vivo, and better protective effect on the experimental animals.

[2] = tested on: CPZ/S-R (a cefoperazone-sulbactam-resistant strain of A. baumannii); experiment: Animal protection experiment, mice infected with CPZ/S-R; type: in vivo; conditions: Acinetobacter baumannii, read-out: ED50 for animals infected with A. baumannii, CPZ/S-R a cefoperazone-sulbactam resistant A. baumannii
Description: as §1
as §2, with “Based on the results of the preliminary experiment, the administration dosages of the tested samples were designed for the animal protection experiment.” left out
Animal protection experiment: After fasting with water only for 18 h, the mice (half male and female, 25-30 g body weight) were randomly divided into: (1) ATCC19606 group, (2) CBP-R group, and (3) CPZ/S-R group. […] The animals were observed continuously for 7 days, and the death of animals in each group was recorded. […]

[3] = tested on: ATCC19606 (a standard strain of A. baumannii); experiment: Animal protection experiment, mice infected with ATCC19606; type: in vivo, Acinetobacter baumannii; conditions: for ED50: Acinetobacter baumannii; for inhibitory effect on the standard strain of A. baumannii without drug resistance (in words): infected ICR mice, summary of Table 1
Description: as §1, §2, §3

[4] = tested on: A. baumannii; conditions: it is reported; cited from earlier work
[5] = ICR mice, 1 MLD i.p. infection, s.c. dosing at 0 h and 6 h, 7 days observation, Bliss method

Row | Structure (SMILES) | ED50 [1, 5] [mg/kg] | inhibitory / anti-bacterial effect on drug-resistant strains of A. baumannii (in words) [1] | ED50 [2, 5] [mg/kg] | ED50 ([3]; ATCC19606, ICR mice, 1 MLD i.p. infection, s.c. dosing at 0 h and 6 h, 7 days observation, Bliss method, read-out: ED50 for animals infected with A. baumannii, ATCC19606 a standard strain) [mg/kg] | inhibitory effect on the standard strain of A. baumannii without drug resistance (in words) [3] | ED50 [1] [mg/kg] | ED50 [2] [mg/kg] | ED50 ([3]; ATCC19606, read-out: ED50 for animals infected with A. baumannii, ATCC19606 a standard strain) [mg/kg] | resistance rate of A. baumannii [4]
1 | C[C@@H](O)[C@H]1C(=O)N2C(C(=O)O)=C(S[C@@H]3CN[C@H](C(=O)N(C)C)C3)[C@H](C)[C@H]12 [Meropenem] | > 200 | significantly decreased inhibitory effect | 100 to 200 | < 20 | more advantageous in pharmaceutical efficacy | – | – | – | –
2 | CC1(C)[C@H](C(=O)O)N2C(=O)C[C@H]2S1(=O)=O [Sulbactam, (2S,5R)-3,3-dimethyl-7-oxo-4-thia-1-azabicyclo[3.2.0]heptane-2-carboxylic acid-4,4-dioxide] | – | significantly decreased inhibitory effect | – | – | more advantageous in pharmaceutical efficacy | 100 to 200 | > 200 | < 20 | –
3 | CCN1CCN(C(=O)N[C@@H](C(=O)N[C@@H]2C(=O)N3[C@@H]2SC(C)(C)[C@@H]3C(=O)O)c2ccccc2)C(=O)C1=O [piperacillin] | – | – | – | – | – | – | – | – | over 70%
